Assay results taken from BindingDB's records for doi:10.1016/0968-0896(96)00130-7 (Sankyo, 1996).

Biological target: T1, Dimer of Gag-Pol polyprotein [489-587] (Human immunodeficiency virus 1, UniProt P12497)
T1 construct: 489-587
Test: Protease Inhibition Assay
Settings: pH 4.7; 37 °C
Description: The inhibitory activities of the compounds toward HIV-1 PR were determined by sodium dodecyl sulfate-polyacrylamide gel electrophoresis (SDS-PAGE) assay. The Ki values of active compounds were determined using the partially purified protease and the synthetic substrate Ac-Ser-Gln-AsnTyr-Pro-Ile-Val-NH2.

Structure (SMILES) | Ki [nM]
CC(C)(C)NC(=O)[C@@H]1CC(Cl)CN1C(=O)[C@@H](O)[C@H](Cc1ccccc1)NC(=O)[C@H](CC(N)=O)NC(=O)OCc1ccccc1 (stereo partly drawn) [benzyl N-[(1S)-1-{[(2S,3S)-4-[(2S)-2-(tert-butylcarbamoyl)-4-chloropyrrolidin-1-yl]-3-hydroxy-4-oxo-1-phenylbutan-2-yl]carbamoyl}-2-carbamoylethyl]carbamate] | 8
CC(C)(C)NC(=O)[C@@H]1C(O)CCN1C(=O)[C@@H](O)[C@H](Cc1ccccc1)NC(=O)[C@H](CC(N)=O)NC(=O)OCc1ccccc1 (stereo partly drawn) [benzyl N-[(1S)-1-{[(2S,3S)-4-[(2S)-2-(tert-butylcarbamoyl)-3-hydroxypyrrolidin-1-yl]-3-hydroxy-4-oxo-1-phenylbutan-2-yl]carbamoyl}-2-carbamoylethyl]carbamate] | 0.1
CC(C)(C)NC(=O)[C@@H]1CC(N2CCOCC2)CN1C(=O)[C@@H](O)[C@H](Cc1ccccc1)NC(=O)[C@H](CC(N)=O)NC(=O)OCc1ccccc1 (stereo partly drawn) [benzyl N-[(1S)-1-{[(2S,3S)-4-[(2S)-2-(tert-butylcarbamoyl)-4-(morpholin-4-yl)pyrrolidin-1-yl]-3-hydroxy-4-oxo-1-phenylbutan-2-yl]carbamoyl}-2-carbamoylethyl]carbamate] | 1
CC(C)(C)NC(=O)[C@@H]1C[C@@H](Cl)CN1C(=O)[C@@H](O)[C@H](Cc1ccccc1)NC(=O)[C@H](CC(N)=O)NC(=O)OCc1ccccc1 [Z-Asn-(2S,3S).AHPBA. [4(R ).chloro] Pro tert-butylamide] | 90
CC(C)(C)NC(=O)[C@@H]1CC(F)(F)CN1C(=O)[C@@H](O)[C@H](Cc1ccccc1)NC(=O)[C@H](CC(N)=O)NC(=O)OCc1ccccc1 [benzyl N-[(1S)-1-{[(2S,3S)-4-[(2S)-2-(tert-butylcarbamoyl)-4,4-difluoropyrrolidin-1-yl]-3-hydroxy-4-oxo-1-phenylbutan-2-yl]carbamoyl}-2-carbamoylethyl]carbamate] | 35
CC(C)(C)NC(=O)[C@@H]1CC(Br)CN1C(=O)[C@@H](O)[C@H](Cc1ccccc1)NC(=O)[C@H](CC(N)=O)NC(=O)OCc1ccccc1 (stereo partly drawn) [Z-Asn-(2S,3S)-AHPBA.[4(S)-bromo]Pro tert-butylamide] | 22.5
CC(C)(C)NC(=O)[C@@H]1C[C@H](Cl)CN1C(=O)[C@@H](O)[C@H](Cc1ccccc1)NC(=O)[C@H](CC(N)=O)NC(=O)c1cnc2ccccc2n1 [(Quinoxaline-2-carbonyl)-Asn-(2S,3S)-AHPBA-[4(S)-chloro]Pro tert-butylamide] | 4.7
COc1cccc2cc(C(=O)N[C@@H](CC(N)=O)C(=O)N[C@@H](Cc3ccccc3)[C@H](O)C(=O)N3C[C@@H](Cl)C[C@H]3C(=O)NC(C)(C)C)oc12 [(2S)-N-[(2S,3S)-4-[(2S,4S)-2-(tert-butylcarbamoyl)-4-chloropyrrolidin-1-yl]-3-hydroxy-4-oxo-1-phenylbutan-2-yl]-2-[(7-methoxy-1-benzofuran-2-yl)formamido]butanediamide] | 4.5
CC(C)(C)NC(=O)[C@@H]1CC(O)CN1C(=O)[C@@H](O)[C@H](Cc1ccccc1)NC(=O)[C@H](CC(N)=O)NC(=O)OCc1ccccc1 (stereo partly drawn) [Z.Asn-(2S,3S)-AHPBA-[4(S)-hydroxy]Pro tert-butylamide] | 1
CC(C)(C)NC(=O)[C@@H]1[C@@H](Cl)CCN1C(=O)[C@@H](O)[C@H](Cc1ccccc1)NC(=O)[C@H](CC(N)=O)NC(=O)OCc1ccccc1 [Z-Asn.(2S,3S)-AHPBA.[3(S)-chloro]Pro tert-butylamide] | 14.5
CC(C)(C)NC(=O)[C@@H]1C[C@H](Cl)CN1C(=O)[C@@H](O)[C@H](Cc1ccccc1)NC(=O)[C@H](CC(N)=O)NC(=O)c1noc2ccccc12 [(2S)-2-(1,2-benzoxazol-3-ylformamido)-N-[(2S,3S)-4-[(2S,4S)-2-(tert-butylcarbamoyl)-4-chloropyrrolidin-1-yl]-3-hydroxy-4-oxo-1-phenylbutan-2-yl]butanediamide] | 28
CC(C)(C)NC(=O)[C@@H]1CCCN1C(=O)[C@@H](O)[C@H](Cc1ccccc1)NC(=O)[C@H](CC(N)=O)NC(=O)OCc1ccccc1 [benzyl N-[(1S)-1-{[(2S,3S)-4-[(2S)-2-(tert-butylcarbamoyl)pyrrolidin-1-yl]-3-hydroxy-4-oxo-1-phenylbutan-2-yl]carbamoyl}-2-carbamoylethyl]carbamate] | 57.5
Cn1cc(C(=O)N[C@@H](CC(N)=O)C(=O)N[C@@H](Cc2ccccc2)[C@H](O)C(=O)N2C[C@@H](Cl)C[C@H]2C(=O)NC(C)(C)C)c2ccccc21 [(1-Methylindole-3-carbonyl)- Asn - (2S,3S)-AHPBA-[4(S)-chloro]Pro tert-butylamide] | 20
CC(C)(C)NC(=O)[C@@H]1C[C@H](Cl)CN1C(=O)[C@@H](O)[C@H](Cc1ccccc1)NC(=O)[C@H](CC(N)=O)NC(=O)c1cc2cc(F)ccc2[nH]1 [(2S)-N-[(2S,3S)-4-[(2S,4S)-2-(tert-butylcarbamoyl)-4-chloropyrrolidin-1-yl]-3-hydroxy-4-oxo-1-phenylbutan-2-yl]-2-[(5-fluoro-1H-indol-2-yl)formamido]butanediamide] | 12.5
CC(C)(C)NC(=O)[C@@H]1CC(=O)CN1C(=O)[C@@H](O)[C@H](Cc1ccccc1)NC(=O)[C@H](CC(N)=O)NC(=O)OCc1ccccc1 [Z-Asn.(2S,3S)-AHPBA.(4.oxo)Pro tert-butylamide] | 12.5
COc1ccc2[nH]c(C(=O)N[C@@H](CC(N)=O)C(=O)N[C@@H](Cc3ccccc3)[C@H](O)C(=O)N3C[C@@H](Cl)C[C@H]3C(=O)NC(C)(C)C)cc2c1 [(2S)-N-[(2S,3S)-4-[(2S,4S)-2-(tert-butylcarbamoyl)-4-chloropyrrolidin-1-yl]-3-hydroxy-4-oxo-1-phenylbutan-2-yl]-2-[(5-methoxy-1H-indol-2-yl)formamido]butanediamide] | 21.5
CC(C)(C)NC(=O)[C@@H]1[C@@H](O)CCN1C(=O)[C@@H](O)[C@H](Cc1ccccc1)NC(=O)[C@H](CC(N)=O)NC(=O)OCc1ccccc1 [Z.Asn-(2S,3S).AHPBA.[3(S)-hydroxy]Pro tert-butyl-amide] | 32
COC1(OC)C[C@@H](C(=O)NC(C)(C)C)N(C(=O)[C@@H](O)[C@H](Cc2ccccc2)NC(=O)[C@H](CC(N)=O)NC(=O)OCc2ccccc2)C1 [benzyl N-[(1S)-1-{[(2S,3S)-4-[(2S)-2-(tert-butylcarbamoyl)-4,4-dimethoxypyrrolidin-1-yl]-3-hydroxy-4-oxo-1-phenylbutan-2-yl]carbamoyl}-2-carbamoylethyl]carbamate] | 92
CC(C)(C)NC(=O)[C@@H]1CC(F)CN1C(=O)[C@@H](O)[C@H](Cc1ccccc1)NC(=O)[C@H](CC(N)=O)NC(=O)OCc1ccccc1 (stereo partly drawn) [Z-Asn-(2S,3S)-AHPBA-[4(S)-fluoro] Pro tert-butylamide] | 18
CC(C)(C)NC(=O)[C@@H]1CC(Sc2ccccc2)CN1C(=O)[C@@H](O)[C@H](Cc1ccccc1)NC(=O)[C@H](CC(N)=O)NC(=O)OCc1ccccc1 (stereo partly drawn) [Z.Asn-(2S,3S)-AHPBA-[4(S)-phenylthio]Pro tert-butylamide] | 125
CC(C)(C)NC(=O)[C@@H]1C[C@@H](O)CN1C(=O)[C@@H](O)[C@H](Cc1ccccc1)NC(=O)[C@H](CC(N)=O)NC(=O)OCc1ccccc1 [benzyl N-[(1S)-1-{[(2S,3S)-4-[(2S,4R)-2-(tert-butylcarbamoyl)-4-hydroxypyrrolidin-1-yl]-3-hydroxy-4-oxo-1-phenylbutan-2-yl]carbamoyl}-2-carbamoylethyl]carbamate] | 56
Cn1nc(C(=O)N[C@@H](CC(N)=O)C(=O)N[C@@H](Cc2ccccc2)[C@H](O)C(=O)N2C[C@@H](Cl)C[C@H]2C(=O)NC(C)(C)C)c2ccccc21 [(2S)-N-[(2S,3S)-4-[(2S,4S)-2-(tert-butylcarbamoyl)-4-chloropyrrolidin-1-yl]-3-hydroxy-4-oxo-1-phenylbutan-2-yl]-2-[(1-methyl-1H-indazol-3-yl)formamido]butanediamide] | 16
